Data published in EP4726029A1, “ADIPOCYTE GROWTH INHIBITOR” (Watanabe Oyster Laboratory Co., Ltd., priority 2023, dated 2024).

Legend:
Assay type in all cases: cell-based, mouse
3T3-L1 adipocytes [1] = assay: Adipogenesis assay with inhibitors of intracellular signaling pathways (AdipoRed Assay Reagent)
Procedure: In yet another experiment, to search for the involvement of intracellular signaling factors, the culture fluid was substituted with a culture fluid containing DMEM, which contained 10% FBS and insulin (10 µg/ml), and a vehicle (1% ethanol) or DHMBA (1 or 10 µM) two days after the differentiation culture. The cells were cultured for another two days in a culture fluid containing signaling inhibitory factors, such as genistein (1 or 10 µM), Wortmannin (10 or 100 nM), PD98059 (1 or 10 µM), or Bay 11-7082 (1 or 10 nM). After the cell culture, the amount of intracellular lipid (triglyceride) formation was quantified using AdipoRed Assay Reagent (Lonza, Walkersville, MD, USA) [19 to 21]. Fluorescence was measured at an excitation of 485 nm and an emission of 570 nm using a 96-well plate reader (µQuant, Bio-Tek Instruments).

3T3-L1 preadipocytes [2] = assay: Cell proliferation assay (count of living cells, trypan blue)
Procedure: […] Furthermore, in an experiment to measure cell proliferation, 3T3-L1 preadipocytes (1 × 10^5/ml per well of a 24-well plate) were cultured for three days in a culture fluid containing a vehicle (1% ethanol as the final concentration) or DHMBA (0.1, 1, 10, 100, or 1000 µM).
(§1) After the culture, adhering cells were separated from each well by adding an aseptic solution containing 0.05% trypsin and EDTA (0.1 ml per well) in PBS (Thermo Fisher Scientific, Waltham, MA, USA) not containing Ca^2+/Mg^2+ and incubating the cells for two minutes. Afterward, 0.9 ml of DMEM containing 10% FBS was added to each well to prepare cell suspensions. In order to measure the number of living cells, a medium (0.1 ml) containing suspension cells was mixed with 0.1 ml of 0.5% trypan blue staining solution. The living cells were counted under a microscope (Olympus MTV-3) using a cell counter (Line Seiki H-102P, Tokyo, Japan) and a hemocytometer (Sigma-Aldrich, St. Louis, Missouri). Two counts were averaged in each measurement. The number of cells was shown as the number per well of a culture plate.

3T3-L1 preadipocytes [3] = assay: Cell death assay (number of cells after sub-confluence); conditions: 1000 µM, another two days after sub-confluence (Fig. 2C)
Procedure: In an experiment to measure cell death, 3T3-L1 preadipocytes (1×10^5/ml per well of a 24-well plate) were cultured for three days in a DMEM culture fluid containing 10% BCS and 1% P/S. The cells that reached sub-confluence were cultured for another 48 hours in the presence of a vehicle (1% ethanol as the final concentration) or DHMBA (0.1, 1, 10, 100, or 1000 µM) to examine the variation in the number of cells.
as §1

3T3-L1 preadipocytes [4] = assay: Number of cells in the differentiation process; conditions: 1 or 10 µM
Procedure: (§2) In order to understand the influence of DHMBA on the differentiation of 3T3-L1 preadipocytes, 3T3-L1 preadipocytes (5×10^4 cells/ml per well of a 24-well plate) were cultured for three days, at which point they reached sub-confluence, in 10% bovine calf serum (BCS). After the cells reached sub-confluence (on day 0), the culture fluid was changed to a DMEM differentiation-inducing culture fluid containing 10% FBS, 1% P/S, 0.5 mM IBMX, 1 µM dexamethasone, and insulin (10 µg/ml), and the cells were cultured for another two days. Two days later, to promote adipogenesis, the culture fluid was replaced with a fresh differentiation culture fluid of DMEM containing 10% FBS and insulin (10 µg/ml), and the cells were cultured for another two days.
First, to quantify the effect of DHMBA on the number of cells, a vehicle (1% ethanol as the final concentration) or DHMBA (1 or 10 µM) was added to the differentiation-inducing culture fluid on day 0 of differentiation starting culture or after two days. After zero to two days of the differentiation culture or after two to four days of the culture, the number of cells adhered to a culture dish was measured as described in the previous section.

3T3-L1 adipocytes [5] = assay: Fat accumulation assay (Oil Red O staining); conditions: 0.1, 1, 10, or 100 µM
Procedure: as §2, with “Two days later, to promote adipogenesis, the culture fluid was replaced with a fresh differentiation culture fluid of DMEM containing 10% FBS and insulin (10 µg/ml), and the cells were cultured for another two days.” left out
In an additional experiment to understand the effect of DHMBA on the content of lipids in 3T3-L1 adipocytes, a vehicle (1% ethanol as the final concentration) or DHMBA (0.1, 1, 10, or 100 µM) was included in the differentiation-inducing culture fluid to culture the cells from day 0 of the differentiation-inducing culture to four days later. In order to quantify the lipid content (triglycerides) after the cell culture, the cells in the 24-well plate were gently washed twice with PBS and fixed with 4% formaldehyde dissolved in PBS for 30 minutes. […] Furthermore, in order to quantify the lipid content, the Oil Red stain was extracted with isopropanol. […] The eluate was used to measure the absorbance at 510 nm with a spectrophotometer (µQuant, Bio-Tek Instruments).

3T3-L1 adipocytes [6] = assay: Adipogenesis assay (AdipoRed Assay Reagent); conditions: 1, 10, or 100 µM
Procedure: 3T3-L1 preadipocytes (10^4 cells/0.2 ml per well of a 96-well plate) were cultured for three days, at which point they reached sub-confluence, in DMEM containing 10% BCS and 1% P/S. After the sub-confluence (on day 0), the cells were cultured in a differentiation-inducing culture fluid containing 10% FBS, 1% P/S, 0.5 mM IBMX, and 1 µM dexamethasone with the inclusion of a vehicle (1% ethanol as the final concentration) or DHMBA (0.1, 1, 10, or 100 µM). Two days later, the culture fluid was replaced with a DMEM culture fluid containing insulin (10 µg/ml) without containing 10% FBS or DHMBA, and then, the cells were cultured for another two days.
In another experiment, the cells were cultured in a differentiation culture fluid not containing DHMBA on day 0 of differentiation-inducing culture. Two days later, the culture fluid was replaced with a DMEM culture fluid containing 10% FBS and insulin (10 µg/ml) that contained any of a vehicle (1% ethanol as the final concentration) and DHMBA (0.1, 1, 10, or 100 µM), and then, the cells were cultured for another two days.

Akt = assay: Western blotting of protein level in adipocytes; conditions: DHMBA 10 µM, day 2 to 4 of differentiation (Fig. 7)
Procedure: (§3) 3T3-L1 preadipocytes (1×10^6 cells/100 mm dish used, in 10 ml of culture fluid) were cultured for three days, at which point they reached sub-confluence, in DMEM containing 10% BCS and 1% P/S. Then, the cells were cultured for two days in a DMEM differentiation culture fluid containing 10% FBS, 1% P/S, 0.5 mM IBMX, and 1 µM dexamethasone. […] After the culture, the culture dish was washed three times with cold PBS (10 ml) to eliminate floating cells and dead cells, and adhering cells were scraped using a cell lysis solution containing protease and protein phosphatase inhibitors (Roche Diagnostics, Indianapolis, IN, USA). Next, the cell lysates were centrifuged for 10 minutes at 17,000 × g at 4°C. The concentration of proteins in the supernatant was quantified using Bio-Rad Protein Assay Dye (Bio-Rad Laboratories, Inc., Hercules, CA, USA) with bovine serum albumin as a standard. The extracted protein samples were stored at -80°C until they were used.
(§4) As indicated in the previous invention, a sample of 40 micrograms of supernatant proteins per lane was separated by SDS polyacrylamide gel electrophoresis (SDS-PAGE, 12%) and transferred to a PVDF membrane. Specific antibodies for target proteins, such as PPARγ (C26H12) (catalog No. 2435, rabbit antibody), C/EBPα (catalog No. 2295, rabbit), phosphoinositide 3-kinase p110α (PI3K; catalog No. 4255), Akt (catalog No. 9272, rabbit antibody), mitogen-activated protein kinase (MAPK; catalog No. 4695, rabbit antibody), phosphorylated MAPK (catalog No. […]) 4370, rabbit antibody), mechanistic target of rapamycin (mTOR, catalog No. 4517, mouse antibody), NF-κB p65 (catalog No. 3034, rabbit antibody), and β-actin (catalog No. 3700, rabbit antibody), were obtained from Cell Signaling Technology (Danvers, MA, USA). The PVDF membrane was incubated overnight at 4°C using the above protein antibodies for immunoblotting.
(§5) After the incubation, the PVDF membrane was incubated at room temperature for 60 minutes in a horseradish peroxidase-conjugated secondary antibody (Santa Cruz Biotechnology, Inc., mouse sc-2005 or rabbit sc-2305; 1:1,000 dilution). Protein bands transferred to the PVDF membrane were detected on an X-ray film using a chemiluminescent substrate (catalog No. 34577, Thermo Scientific, Rockford, IL, USA). Four independent experiments were conducted for data, their films were scanned with an Epson Perfection 1660 photo scanner, and the bands were quantified using ImageJ2 software (National Institutes of Health, Bethesda, MD, USA).

C/EBPα = assay: Western blotting of protein level in adipocytes; conditions: DHMBA 10 µM, day 2 to 4 of differentiation (Fig. 7)
Procedure: as §3, §4, §5

MAPK = assay: Western blotting of protein level in adipocytes; conditions: DHMBA 10 µM, day 2 to 4 of differentiation (Fig. 7)
Procedure: as §3, §4, §5

NF-κB p65 = assay: Western blotting of protein level in adipocytes; conditions: DHMBA 10 µM, day 2 to 4 of differentiation (Fig. 7)
Procedure: as §3, §4, §5

PI3 kinase 100α = assay: Western blotting of protein level in adipocytes; conditions: DHMBA 10 µM, day 2 to 4 of differentiation (Fig. 7)
Procedure: as §3, §4, §5

PPARγ = assay: Western blotting of protein level in adipocytes; conditions: DHMBA 10 µM, day 2 to 4 of differentiation (Fig. 7)
Procedure: as §3, §4, §5

mTOR = assay: Western blotting of protein level in adipocytes; conditions: DHMBA 10 µM, day 2 to 4 of differentiation (Fig. 7)
Procedure: as §3, §4, §5

phosphorylated MAPK = assay: Western blotting of protein level in adipocytes; conditions: DHMBA 10 µM, day 2 to 4 of differentiation (Fig. 7)
Procedure: as §3, §4, §5

## Cc1ccc(S(=O)(=O)C=CC#N)cc1 [Bay 11-7082, reference compound]
3T3-L1 adipocytes [1]; Bay 11-7082 1 or 10 nM (Fig. 6D)
  adipogenesis: inhibited

## COc1c(O)cc(CO)cc1O [DHMBA, 3,5-dihydroxy-4-methoxybenzyl alcohol]
3T3-L1 preadipocytes [2]; DHMBA 10 µM, culture for three to five days (Fig. 2A)
  Cell proliferation: suppressed
3T3-L1 preadipocytes [2]; cultured for three days, concentrations ranging from 1 µM to 1000 µM (Fig. 2B)
  Cell proliferation: suppressed
3T3-L1 preadipocytes [3]
  number of cells (cell death): reduced
3T3-L1 preadipocytes [4]; day 0 to 2 in culture fluid with differentiation-inducing factors (Fig. 3B)
  number of cells: not varied
3T3-L1 preadipocytes [4]; day 2 to 4 in culture fluid containing insulin (Fig. 3C)
  number of cells: not varied
3T3-L1 adipocytes [5]; on day 0 and after two days of differentiation culture (Fig. 4A)
  lipid accumulation (Oil Red O stained images): reduced
3T3-L1 adipocytes [5]; on day 0 and after two days of differentiation culture (Fig. 4B)
  lipid content in the cells (absorbance at 510 nm): decrease
3T3-L1 adipocytes [6]; two to four days after the differentiation, late stage (Fig. 5C)
  adipogenesis: suppression
3T3-L1 adipocytes [6]; zero to four days after the differentiation (Fig. 5A)
  adipogenesis: suppressed
3T3-L1 adipocytes [6]; zero to two days after the differentiation (Fig. 5B)
  adipogenesis: suppression
3T3-L1 adipocytes [1]; DHMBA 1 or 10 µM in the presence of Bay 11-7082 1 or 10 nM (Fig. 6D)
  inhibition of adipogenesis: further enhanced
3T3-L1 adipocytes [1]; DHMBA 1 or 10 µM in the presence of PD98059 1 or 10 µM (Fig. 6C)
  inhibition of adipogenesis: further enhanced
3T3-L1 adipocytes [1]; DHMBA 1 or 10 µM in the presence of Wortmannin 10 or 100 nM (Fig. 6B)
  inhibition of adipogenesis: further enhanced
3T3-L1 adipocytes [1]; DHMBA 1 or 10 µM in the presence of genistein (Fig. 6A)
  adipogenesis: inhibited
Akt
  level of Akt: reduction
C/EBPα
  level of C/EBPα: reduced
MAPK
  level of MAPK: reduction
NF-κB p65
  level of NF-κB p65: reduced
PI3 kinase 100α
  level of PI3 kinase 100α: reduction
PPARγ
  level of PPARγ: reduced
mTOR
  level of mTOR: reduction
Phosphorylated MAPK
  level of phosphorylated MAPK: reduction

## COc1cccc(-c2cc(=O)c3ccccc3o2)c1N [PD98059, reference compound]
3T3-L1 adipocytes [1]; PD98059 1 or 10 µM (Fig. 6C)
  adipogenesis: inhibited

## COC[C@H]1OC(=O)c2coc3c2[C@@]1(C)C1=C(C3=O)[C@@H]2CCC(=O)[C@@]2(C)C[C@H]1OC(C)=O [Wortmannin, reference compound]
3T3-L1 adipocytes [1]
  adipogenesis: inhibited

## O=c1c(-c2ccc(O)cc2)coc2cc(O)cc(O)c12 [genistein, reference compound]
3T3-L1 adipocytes [1]; genistein 1 or 10 µM alone, two days from day 2 of differentiation (Fig. 6A)
  lipogenesis: not altered
